Measured values reported in ChEMBL document CHEMBL1909498, “Secoiridoid glucosides and related compounds from Syringa reticulata and their antioxidant activities” (Bioorg Med Chem Lett, 2011).

Columns and labels:
[1] = Antioxidant activity assessed as superoxide radical scavenging activity after 20 mins by spectrophotometric analysis; type: functional
[2] = tested on: Radical scavenging activity; assay: Antioxidant activity assessed as DPPH radical scavenging activity after 30 mins by spectrophotometric analysis; type: functional

EC50 [1] [µM] | EC50 [2] [µM] | SMILES
> 100 | > 100 | COc1cc([C@H]2OC[C@H]3[C@@H]2CO[C@@H]3c2cc(OC)c(O[C@@H]3O[C@H](CO)[C@@H](O)[C@H](O)[C@H]3O)c(OC)c2)cc(OC)c1O
18.6 | > 100 | COc1cc([C@H]2OC[C@H]3[C@@H]2CO[C@@H]3c2ccc(O[C@@H]3O[C@H](CO)[C@@H](O)[C@H](O)[C@H]3O)c(OC)c2)ccc1O
4.97 | 33 | OC[C@H]1O[C@@H](OCCc2ccc(O)c(O)c2)[C@H](O)[C@@H](O)[C@@H]1O
39.3 | > 100 | COc1cc([C@H]2c3cc(O[C@@H]4O[C@H](CO)[C@@H](O)[C@H](O)[C@H]4O)c(OC)cc3C[C@@](O)(CO)[C@@H]2CO)ccc1O
> 100 | > 100 | COc1cc(C[C@]2(O)CO[C@@H](c3ccc(O[C@H]4O[C@@H](CO)[C@H](O)[C@@H](O)[C@@H]4O)c(OC)c3)[C@@H]2CO)ccc1O
25.3 | > 100 | COc1cc([C@@H]2OC[C@@](O)(Cc3ccc(O[C@@H]4O[C@H](CO)[C@@H](O)[C@H](O)[C@H]4O)c(OC)c3)[C@H]2CO)ccc1O
10.6 | > 100 | COc1cc(C[C@@H]2CO[C@@H](c3cc(OC)c(O)c(OC)c3)[C@@H]2CO)ccc1O[C@@H]1O[C@H](CO)[C@@H](O)[C@H](O)[C@H]1O [ARMANDISIDE]
> 100 | > 100 | COc1cc(/C=C/C=O)ccc1O[C@@H]1O[C@H](CO)[C@@H](O)[C@H](O)[C@H]1O [CONIFERYALDEHYDE GLUCOSIDE]
14.1 | > 100 | COc1cc(/C=C/CO[C@H]2O[C@@H](CO)[C@H](O)[C@@H](O)[C@@H]2O)cc(OC)c1O[C@@H]1O[C@H](CO)[C@@H](O)[C@H](O)[C@H]1O [ISOSYRINGINOSIDE]
4.97 | > 100 | C/C=C1/[C@H](O[C@@H]2O[C@H](CO)[C@@H](O)[C@H](O)[C@H]2O)OC=C(C(=O)OC)[C@H]1CC(=O)OC[C@H]1O[C@@H](O[C@@H]2OC=C(C(=O)OC)[C@@H](CC(=O)OCCc3ccc(O)c(O)c3)/C2=C\C)[C@H](O)[C@@H](O)[C@@H]1O [JASPOLYOSIDE]
> 100 | > 100 | C/C=C1/[C@H](O[C@@H]2O[C@H](CO)[C@@H](O)[C@H](O)[C@H]2O)OC=C(C(=O)OC)[C@H]1CC(=O)OCCc1ccc(O)cc1 [LIGSTROSIDE]
2.57 | 20.8 | C/C=C1/[C@H](O[C@@H]2O[C@H](CO)[C@@H](O)[C@H](O)[C@H]2O)OC=C(C(=O)OC)[C@H]1CC(=O)OCCc1ccc(O)c(O)c1 [OLEUROPEIN]
64.1 | > 100 | C/C=C1/[C@H](O[C@@H]2O[C@H](CO)[C@@H](O)[C@H](O)[C@H]2O)OC=C(C(=O)OC)[C@H]1CC(=O)OC[C@H]1O[C@@H](Oc2c(OC)cc(/C=C/CO)cc2OC)[C@H](O)[C@@H](O)[C@@H]1O [RETICULOSIDE]
> 100 | > 100 | OC[C@H]1O[C@@H](OCCc2ccc(O)cc2)[C@H](O)[C@@H](O)[C@@H]1O [SALIDROSIDE]

SMILES | EC50 [1] [µM] | EC50 [2] [µM]
COc1cc([C@H]2OC[C@H]3[C@@H]2CO[C@@H]3c2cc(OC)c(O[C@@H]3O[C@H](CO)[C@@H](O)[C@H](O)[C@H]3O)c(OC)c2)cc(OC)c1O[C@H]1O[C@@H](CO)[C@H](O)[C@@H](O)[C@@H]1O [LIRIODENDRTACHIOSIDE] | 16 | > 100
COc1cc(/C=C/C=O)cc(OC)c1O[C@@H]1O[C@H](CO)[C@@H](O)[C@H](O)[C@H]1O [SINAPALDEHYDE GLUCOSIDE] | > 100 | > 100
COc1cc(/C=C/CO)cc(OC)c1O[C@@H]1O[C@H](CO)[C@@H](O)[C@H](O)[C@H]1O [SYRINGIN] | 70.9 | > 100
